# Experimental data taken from ChEMBL document CHEMBL3739369, “Identification of Elaiophylin Skeletal Variants from the Indonesian Streptomyces sp. ICBB 9297” (2015).
# Assays:
# Format in all cases: functional
# [1] = system: Mycolicibacterium smegmatis; experiment: Antimicrobial activity against Mycobacterium smegmatis ATCC 14468 for 17 to 48 hrs by MTT assay
# Bacillus subtilis = experiment: Antimicrobial activity against Bacillus subtilis ATCC 6051 for 17 to 48 hrs by MTT assay
# Staphylococcus aureus = experiment: Antimicrobial activity against Staphylococcus aureus ATCC 12600 for 17 to 48 hrs by MTT assay
# Escherichia coli = experiment: Antimicrobial activity against Escherichia coli ATCC 11775 for 17 to 48 hrs by MTT assay
# Pseudomonas aeruginosa = experiment: Antimicrobial activity against Pseudomonas aeruginosa ATCC 9721 for 17 to 48 hrs by MTT assay
smiles,measurement,setting,value
CN[C@@H]1[C@@H](O[C@H]2O[C@H](CO)[C@@H](N)[C@H](O)[C@H]2O)O[C@H]2C[C@@H](N)[C@@H](O[C@H]3[C@H](O)[C@@H](O)[C@H](N)C[C@@H]3N)O[C@@H]2[C@@H]1O,MIC,[1],0.39 µg/mL
CC[C@@H]1[C@@H](C)O[C@@](OC)([C@@H](C)[C@H](O)[C@H](C)[C@H]2OC(=O)/C=C/C=C/[C@H](C)[C@@H]([C@@H](C)[C@@H](O)[C@H](C)[C@@]3(O)C[C@@H](O[C@H]4C[C@H](O)[C@H](O)[C@H](C)O4)[C@H](CC)[C@@H](C)O3)OC(=O)/C=C/C=C/[C@@H]2C)C[C@H]1O[C@H]1C[C@H](O)[C@H](O)[C@H](C)O1,MIC,Bacillus subtilis,> 100 µg/mL
same,MIC,[1],> 100 µg/mL
same,MIC,Staphylococcus aureus,1.56 µg/mL
same,MIC,Escherichia coli,> 100 µg/mL
same,MIC,Pseudomonas aeruginosa,> 100 µg/mL
CC[C@@H]1[C@@H](C)O[C@@](OC)([C@@H](C)[C@H](O)[C@H](C)[C@H]2OC(=O)/C(C)=C/C=C/[C@H](C)[C@@H]([C@@H](C)[C@@H](O)[C@H](C)[C@@]3(OC)C[C@@H](O[C@H]4C[C@H](O)[C@H](O)[C@H](C)O4)[C@H](CC)[C@@H](C)O3)OC(=O)/C(C)=C/C=C/[C@@H]2C)C[C@H]1O[C@H]1C[C@H](O)[C@H](O)[C@H](C)O1,MIC,Bacillus subtilis,> 100 µg/mL
same,MIC,[1],> 100 µg/mL
same,MIC,Staphylococcus aureus,3.13 µg/mL
same,MIC,Escherichia coli,> 100 µg/mL
same,MIC,Pseudomonas aeruginosa,> 100 µg/mL
CC[C@@H]1[C@@H](C)O[C@@](O)([C@@H](C)[C@H](O)[C@H](C)[C@H]2OC(=O)/C=C/C=C/[C@H](C)[C@@H]([C@@H](C)[C@@H](O)[C@H](C)[C@@]3(O)C[C@@H](O[C@H]4C[C@H](O)[C@H](O)[C@H](C)O4)[C@H](CC)[C@@H](C)O3)OC(=O)/C(C)=C/C=C/[C@@H]2C)C[C@H]1O[C@H]1C[C@H](O)[C@H](O)[C@H](C)O1,MIC,Bacillus subtilis,> 100 µg/mL
same,MIC,[1],6.25 µg/mL
same,MIC,Staphylococcus aureus,0.78 µg/mL
same,MIC,Escherichia coli,> 100 µg/mL
same,MIC,Pseudomonas aeruginosa,> 100 µg/mL
CC[C@@H]1[C@@H](C)O[C@@](OC)([C@@H](C)[C@H](O)[C@H](C)[C@H]2OC(=O)/C=C/C=C/[C@H](C)[C@@H]([C@@H](C)[C@@H](O)[C@H](C)[C@@]3(OC)C[C@@H](O[C@H]4C[C@H](O)[C@H](O)[C@H](C)O4)[C@H](CC)[C@@H](C)O3)OC(=O)/C(C)=C/C=C/[C@@H]2C)C[C@H]1O[C@H]1C[C@H](O)[C@H](O)[C@H](C)O1,MIC,Bacillus subtilis,> 100 µg/mL
same,MIC,[1],6.25 µg/mL
same,MIC,Staphylococcus aureus,1.56 µg/mL
same,MIC,Escherichia coli,> 100 µg/mL
same,MIC,Pseudomonas aeruginosa,> 100 µg/mL
CC[C@@H]1[C@@H](C)O[C@@](O)([C@@H](C)[C@H](O)[C@H](C)[C@H]2OC(=O)/C=C/C=C/[C@H](C)[C@@H]([C@@H](C)[C@@H](O)[C@H](C)[C@@]3(O)C[C@@H](O[C@H]4C[C@H](O)[C@H](O)[C@H](C)O4)[C@H](CC)[C@@H](C)O3)OC(=O)/C=C/C=C/[C@@H]2C)C[C@H]1O[C@H]1C[C@H](O)[C@H](O)[C@H](C)O1,MIC,Bacillus subtilis,> 100 µg/mL
same,MIC,[1],> 100 µg/mL
same,MIC,Staphylococcus aureus,0.78 µg/mL
same,MIC,Escherichia coli,> 100 µg/mL
same,MIC,Pseudomonas aeruginosa,> 100 µg/mL
CC[C@@H]1[C@@H](C)O[C@@](OC)([C@@H](C)[C@H](O)[C@H](C)[C@H]2OC(=O)/C=C/C=C/[C@H](C)[C@@H]([C@@H](C)[C@@H](O)[C@H](C)[C@@]3(OC)C[C@@H](O[C@H]4C[C@H](O)[C@H](O)[C@H](C)O4)[C@H](CC)[C@@H](C)O3)OC(=O)/C=C/C=C/[C@@H]2C)C[C@H]1O[C@H]1C[C@H](O)[C@H](O)[C@H](C)O1,MIC,Bacillus subtilis,> 100 µg/mL
same,MIC,[1],> 100 µg/mL
same,MIC,Staphylococcus aureus,1.56 µg/mL
same,MIC,Escherichia coli,> 100 µg/mL
same,MIC,Pseudomonas aeruginosa,> 100 µg/mL
CC1(C)S[C@@H]2[C@H](NC(=O)[C@H](N)c3ccccc3)C(=O)N2[C@H]1C(=O)O [AMPICILLIN],MIC,Bacillus subtilis,0.78 µg/mL
same,MIC,[1],> 100 µg/mL
same,MIC,Staphylococcus aureus,0.78 µg/mL
same,MIC,Escherichia coli,6.25 µg/mL
same,MIC,Pseudomonas aeruginosa,1.56 µg/mL
